Laboratory results from PubChem BioAssay (NCI).
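Values below derive from 48-hour exposures of cells grown in 96-well plates, with endpoints linearly interpolated between the two concentrations bracketing the appropriate inhibition level. TGI marks complete inhibition of growth.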

Columns and labels:
Test in all cases: NCI anticancer screen, dose series, 48 h
ACHN renal = test system: ACHN renal
HT29 colon = test system: HT29 colon
K-562 leukemia = test system: K-562 leukemia
MOLT-4 leukemia = test system: MOLT-4 leukemia
SF-295 CNS = test system: SF-295 CNS
SK-MEL-2 melanoma = test system: SK-MEL-2 melanoma
SK-MEL-5 melanoma = test system: SK-MEL-5 melanoma
U251 CNS = test system: U251 CNS
SF-268 CNS = test system: SF-268 CNS
A498 renal = test system: A498 renal

Structure (SMILES) | TGI (ACHN renal) [µM] | TGI (HT29 colon) [µM] | TGI (K-562 leukemia) [µM] | TGI (MOLT-4 leukemia) [µM] | TGI (SF-295 CNS) [µM] | TGI (SK-MEL-2 melanoma) [µM] | TGI (SK-MEL-5 melanoma) [µM] | TGI (U251 CNS) [µM] | TGI (SF-268 CNS) [µM] | TGI (A498 renal) [µM]
Cn1c(-c2c(C3=CC(=O)N(c4ccccc4)C3=O)c3ccccc3n2C)cc2ccccc21 | > 100 | > 100 | > 100 | > 100 | > 100 | > 100 | > 100 | > 100 | – | –
CC1=NN2CCC(=O)N=C2S1 | > 100 | > 100 | > 100 | > 100 | > 100 | > 100 | > 100 | > 100 | > 100 | –
CC(C)N1[C@@H]2CCCC[C@H]2N(C(C)C)[P+]1=O | > 100 | > 100 | > 100 | > 100 | > 100 | – | > 100 | – | > 100 | > 100
CC(C)=CCC[C@@H](C)C1=C(O)C(Nc2ccccc2)=C(C)C(=O)C1=O | 36.1 | > 96.3 | > 80.9 | > 72.2 | 32.4 | > 89.9 | 55.6 | > 100 | > 100 | 87.1
COc1cc(-c2nc(SC)nc3c2CCc2ccccc2-3)cc(OC)c1OC | > 100 | > 100 | 79.2 | 96.2 | > 100 | > 100 | > 100 | > 100 | > 100 | > 100
Cc1cc(OCc2nnc3n2N=C(c2cc(F)c(Cl)cc2Cl)/C(=C/c2ccc(-c4ccc(Cl)cc4)o2)S3)ccc1Cl | > 50 | > 50 | > 50 | > 50 | > 50 | > 50 | > 50 | > 50 | > 50 | > 50
O=c1onc(Nc2ccccc2)n1-c1ccccc1 | > 100 | > 100 | > 100 | > 100 | > 100 | > 100 | > 100 | > 100 | – | > 100
O=NNc1c[nH]c(=O)[nH]c1=O | > 100 | – | > 100 | > 100 | > 100 | > 100 | > 100 | > 100 | – | > 100
CCN(CC)C(=O)c1cc([N+](=O)[O-])c(=O)n2c1[nH]c1ccccc12 | > 100 | > 100 | > 100 | > 100 | > 100 | – | > 100 | – | > 100 | –
CCOP(=O)(Cc1nc(C#N)c(N)o1)OCC | > 100 | > 100 | > 100 | > 100 | > 100 | > 100 | > 100 | > 100 | > 100 | > 100
COc1ccc(/C=C(/c2ccc(OC)cc2)c2c(Cl)cc(Cl)c(/C(=C\c3ccc(OC)cc3)c3ccc(OC)cc3)c2N=Nc2ccccc2)cc1 | > 100 | > 100 | > 100 | > 100 | > 100 | > 100 | > 100 | > 100 | > 100 | > 100
OC(CCl)CN1CC[N+]2(CC1)CC[N+]1(CCN(CC(O)CCl)CC1)CC2 (centres undefined) | > 50 | > 50 | > 50 | > 50 | > 50 | > 50 | > 50 | > 50 | > 50 | > 50
O=C(O)C1CSC2(CCCN(Cc3ccccc3)C2)N1 (centres undefined) | > 100 | > 100 | > 81.1 | > 59.9 | > 100 | > 100 | > 100 | > 100 | > 100 | > 100
O=[N+]([O-])c1ccc(Nc2cccc3c2[nH]c2c(-c4ccccc4)nccc23)c([N+](=O)[O-])c1 | – | > 100 | > 100 | > 100 | > 100 | > 100 | > 100 | > 100 | > 100 | > 100
COc1ccc(C2NC(N)=C(C#N)C3=C2C(C)CCC3)cc1OC (centres undefined) | > 100 | > 100 | > 100 | > 100 | > 100 | > 100 | > 100 | > 100 | > 100 | –
Cc1ccc2c(=O)cc(-c3cccc(F)c3)[nH]c2n1 | > 100 | 1.11 | > 100 | > 100 | – | – | 2.16 | > 74.7 | > 100 | –
NC(=S)NS(=O)(=O)c1ccc(Cl)cc1 | > 100 | > 100 | > 100 | > 100 | > 100 | > 100 | > 100 | > 100 | > 100 | –
Cc1ccc(S(=O)(=O)NC(=O)NC(CC(=O)O)C(=O)O)cc1 (centres undefined) | > 100 | > 100 | > 100 | > 100 | > 100 | > 100 | > 100 | > 100 | > 100 | –
CCCCCCCCCCOc1ccc(N=Nc2nnc(-c3ccc(OCCCCC)cc3)s2)cc1 | > 100 | > 100 | > 100 | > 100 | > 100 | – | > 100 | > 100 | > 100 | > 100
CC(=O)c1c(O)cc(O)c(-c2c(C)cc(O)c3c2C(=O)c2cccc(O)c2C3=O)c1O | 25.5 | 31.5 | 62.6 | 38.5 | 26.9 | 34.2 | – | 27.2 | 36.8 | 29.1
CCN(CCC#N)C(=O)Nc1ccccc1 | > 100 | > 100 | > 100 | > 100 | > 100 | > 100 | > 100 | > 100 | – | –
CCOC(=O)CCC(NC(=O)c1ccc(Nc2nc3ccccc3nc2C(=O)OCC)s1)C(=O)OCC (centres undefined) | – | > 100 | > 100 | > 100 | – | > 100 | > 100 | > 100 | > 100 | > 100
COc1ccc(C2=NN(c3nsc4ccccc34)C(=O)CC2)cc1 | > 100 | > 100 | > 100 | > 100 | – | > 100 | > 100 | > 100 | > 100 | –
